pIC50: −log10 of the molar value. Numbered stars: 1 amine (or outer) side, 2 acyl side, 3 side chain; on linkers, the order of the positions; unused ones are H or OH. Bridge positions count the residues as written; N and C are the ends. Square brackets hold non-standard residues; d marks the D form. Side chains are listed from the residue outwards. Peptide text beside a SMILES is read from it. * marks the point of attachment. Dip = N[C@H](C(=O)O)C(c1ccccc1)c1ccccc1; Hag = O=C([C@H](CCC=[*:3])N[*:1])[*:2]; Palmitoyl = CCCCCCCCCCCCCCCC(=O)*; tBuAla = CC(C)(C)C[C@H](N)C(=O)O; β3hF = N[C@H](CC(=O)O)Cc1ccccc1; NMeL = CN[C@@H](CC(C)C)C(=O)O; Isovaleryl = CC(C)CC(=O)*; Ahx = NCCCCCC(=O)O
Tests used:
ferroportin = molecular target: T1, ferroportin (Homo sapiens, UniProt Q9NP59); test: T47D cell-based ferroportin internalization assay in presence of 0.5% mouse serum albumin (MSA); conditions: T47D cells
T1 sequence (Q9NP59 1-571): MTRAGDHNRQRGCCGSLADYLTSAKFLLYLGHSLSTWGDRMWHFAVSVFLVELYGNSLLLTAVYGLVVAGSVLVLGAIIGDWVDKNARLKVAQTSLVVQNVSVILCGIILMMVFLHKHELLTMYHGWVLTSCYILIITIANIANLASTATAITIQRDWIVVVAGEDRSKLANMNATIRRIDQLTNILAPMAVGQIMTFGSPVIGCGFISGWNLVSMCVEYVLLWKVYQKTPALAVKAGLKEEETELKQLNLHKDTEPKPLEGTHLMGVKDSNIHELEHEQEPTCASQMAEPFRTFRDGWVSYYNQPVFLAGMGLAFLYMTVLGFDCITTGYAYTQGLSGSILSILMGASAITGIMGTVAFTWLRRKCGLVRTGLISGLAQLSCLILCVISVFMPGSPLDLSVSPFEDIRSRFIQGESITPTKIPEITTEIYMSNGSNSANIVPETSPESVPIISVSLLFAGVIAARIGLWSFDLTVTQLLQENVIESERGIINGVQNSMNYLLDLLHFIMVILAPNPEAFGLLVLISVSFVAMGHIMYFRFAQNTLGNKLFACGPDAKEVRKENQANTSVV
Method: The potency of the peptides in causing ferroportin internalization was evaluated in a T47D cell-based assay. […] In this internalization assay, the potency of the test peptides was evaluated in presence of serum albumin which is the main protein component in the blood. T47D cells were maintained in RPMI media (containing required amount of fetal bovine serum) and regularly sub-cultured. In preparation for the assay, the cells were seeded in 96-well plates at a density of 80-100 k cells per well in 100 ul volume and allowed to rest overnight. On the next day, test peptides were first prepared in dilution series (10-point series, starting concentration of ˜5 μM, typically 3-4×fold dilution steps), all with 0.5% mouse serum albumin (MSA purified from mouse serum; Sigma, A3139). The test peptide dilution series were allowed to incubate at room temperature for 30 min. Then the media was aspirated from the 96-well cell plate and test peptide dilution series were added. After 1 hr incubation, the media with test peptides was aspirated out and AF647-conjugated detection peptide was added at fixed concentration of 200 nM. The AF647-conjugated detection peptide was previously verified to bind to ferroportin and cause its internalization. The cells were washed again after a 2 hr incubation in preparation for flow cytometry analysis. The Median Fluorescence Intensity (MFI) of the AF647-positive population was measured (after removing dead cells and non-singlets from the analysis). The MFI values were used to generate a dose-response curve and obtain IC50 potencies for the test peptides. The IC50 potencies were calculated by using 4-parameter non-linear fitting function in Graphpad Prism (Table 6A).

[1] = molecular target: T2, human ferroportin (SLC40A1) (Homo sapiens, UniProt Q9NP59); test: FPN activity assay: internalization/degradation of ferroportin-GFP in stably transfected HEK293 cells (decrease in GFP fluorescence); type: cell-based; conditions: compound incubated at least 18 hours
T2 sequence (Q9NP59 1-571): T1 sequence (Q9NP59 1-571)
Method: Peptide analogues were tested in vitro for induction of internalization of the human ferroportin protein. Following internalization, the ferroporin protein is degraded. The assay used (FPN activity assay) measures a decrease in fluorescence of the receptor. The cDNA encoding the human ferroportin (SLC40A1) was cloned from a cDNA clone from Origene (NM_014585). The DNA encoding the ferroportin was amplified by PCR using primers also encoding terminal restriction sites for subcloning, but without the termination codon. The ferroportin receptor was subcloned into a mammalian GFP expression vector containing a neomycin (G418) resistance marker in such that the reading frame of the ferroportin was fused in frame with the GFP protein. The fidelity of the DNA encoding the protein was confirmed by DNA sequencing. HEK293 cells were used for transfection of the ferroportin-GFP receptor expression plasmid. The cells were grown according to standard protocol in growth medium and transfected with the plasmids using Lipofectamine (manufacturer's protocol, Invitrogen). The cells stably expressing ferroportin-GFP were selected using G418 in the growth medium (in that only cells that have taken up and incorporated the cDNA expression plasmid survive) and sorted several times on a Cytomation MoFloTM cell sorter to obtain the GFP-positive cells (488 nm/530 nm). The cells were propagated and frozen in aliquots. […] Compound was added to desired final concentration for at least 18 hours in the incubator. […] Compound was added to desired final concentration for at least 18 hours but no more than 24 hours in the incubator. […] The “RI” in RI-Mini-Hepcidin refers to Retro Inverse. A retro inverse peptide is a peptide with a reversed sequence in all D amino acids. An example is that […] becomes […]. The EC50 of these reference compounds for ferroportin internalization/degradation was determined according to the FPN activity assay described above. These peptides served as control standards.

| SMILES | pIC50 (ferroportin) | pIC50 [1] |
| --- | --- | --- |
| CCCCCCCCCCCCCCCC(=O)NCCCCCC(=O)NCCCC[C@H](NC(=O)C[C@H](Cc1ccccc1)NC(=O)[C@H]1CCC=CCCC[C@@H](NC(=O)CC(C)C)C(=O)N[C@@H]([C@@H](C)O)C(=O)N[C@@H](Cc2c[nH]cn2)C(=O)N[C@@H](C(c2ccccc2)c2ccccc2)C(=O)N2CCC[C@H]2C(=O)N[C@@H](C)C(=O)N[C@@H]([C@@H](C)CC)C(=O)N1)C(=O)N[C@H](CCCCN)C(N)=O [Compd 74] | < 6.30 | 6.30 to 7.00 |
| CCCCCCCCCCCCCCCC(=O)NCCCCCC(=O)NCCCC[C@H](NC(=O)C[C@H](Cc1ccccc1)NC(=O)[C@@H]1CCC=CCC[C@@H](NC(=O)CC(C)C)C(=O)N[C@@H]([C@@H](C)O)C(=O)N[C@@H](Cc2c[nH]cn2)C(=O)N[C@@H](C(c2ccccc2)c2ccccc2)C(=O)N2CCC[C@H]2C(=O)N[C@@H](C)C(=O)N[C@@H]([C@@H](C)CC)C(=O)N1)C(=O)N[C@H](CCCCN)C(N)=O [Compd 68] | 6.30 to 7.00 | 7.00 to 8.00 |
| CCCCCCCCCCCCCCCC(=O)NCCCCCC(=O)NCCCC[C@@H]1NC(=O)[C@H](C)NC(=O)[C@@H]2CCCN2C(=O)[C@H](C(c2ccccc2)c2ccccc2)NC(=O)[C@H](Cc2c[nH]cn2)NC(=O)[C@H]([C@@H](C)O)NC(=O)[C@@H](NC(=O)CC(C)C)CCC=CCC[C@@H](C(=O)N[C@H](CC(=O)N[C@H](CCCCN)C(N)=O)Cc2ccccc2)NC1=O (single isomer, unassigned) [Compd 37] | 6.30 to 7.00 | 6.30 to 7.00 |
| CCCCCCCCCCCCCCCC(=O)NCCCCCC(=O)NCCCC[C@H](NC(=O)C[C@H](Cc1ccccc1)NC(=O)[C@@H]1CCC=CCCC[C@H](NC(=O)CC(C)C)C(=O)N[C@@H]([C@@H](C)O)C(=O)N[C@@H](Cc2c[nH]cn2)C(=O)N[C@@H](C(c2ccccc2)c2ccccc2)C(=O)N2CCC[C@H]2C(=O)N[C@@H](C)C(=O)N[C@@H]([C@@H](C)CC)C(=O)N1)C(=O)N[C@H](CCCCN)C(N)=O [Compd 29] | 8.00 to 9.00 | 8.00 to 9.00 |
| CCCCCCCCCCCCCCCC(=O)NCCCCCC(=O)NCCCC[C@H](NC(=O)C[C@H](Cc1ccccc1)NC(=O)[C@@H]1CCC=CCC[C@H](NC(=O)CC(C)C)C(=O)N(C)[C@@H]([C@@H](C)O)C(=O)N[C@@H](Cc2c[nH]cn2)C(=O)N[C@@H](C(c2ccccc2)c2ccccc2)C(=O)N2CCC[C@H]2C(=O)N[C@@H](C)C(=O)N[C@@H]([C@@H](C)CC)C(=O)N1)C(=O)N[C@H](CCCCN)C(N)=O [Compd 49] | 6.30 to 7.00 | 7.00 to 8.00 |
| CCCCCCCCCCCCCCCC(=O)NCCCCCC(=O)NCCCC[C@H](NC(=O)[C@H](C)NC(=O)[C@@H]1CCC=CCC[C@H](NC(=O)CC(C)C)C(=O)N[C@@H]([C@@H](C)O)C(=O)N[C@@H](Cc2c[nH]cn2)C(=O)N[C@@H](C(c2ccccc2)c2ccccc2)C(=O)N2CCC[C@H]2C(=O)N[C@@H](C)C(=O)N[C@@H]([C@@H](C)CC)C(=O)N1)C(=O)N[C@H](CCCCN)C(N)=O [Compd 46] (Isovaleryl-[Hag]TH[Dip]PAI[Hag]AK([Ahx-Palmitoyl])[dK]-NH2; staple 1-8) | 6.30 to 7.00 | 6.30 to 7.00 |
| CCCCCCCCCCCCCCCC(=O)NCCCCCC(=O)NCCCC[C@@H]1NC(=O)[C@@H]2CCCN2C(=O)[C@H](C(c2ccccc2)c2ccccc2)NC(=O)[C@H](Cc2c[nH]cn2)NC(=O)[C@H]([C@@H](C)O)NC(=O)[C@@H](NC(=O)CC(C)C)CCC=CCC[C@@H](C(=O)N[C@H](CC(N)=O)Cc2ccccc2)NC(=O)[C@H]([C@@H](C)CC)NC1=O [Compd 24] (Isovaleryl-[Hag]TH[Dip]PK([Ahx-Palmitoyl])I[Hag][β3hF]-NH2; staple 1-8) | 7.00 to 8.00 | 7.00 to 8.00 |
| CCCCCCCCCCCCCCCC(=O)NCCCCCC(=O)NCCCC[C@H](NC(=O)C[C@H](Cc1ccccc1)NC(=O)[C@@H]1CCC=CCC[C@H](NC(=O)CC(C)C)C(=O)N[C@@H]([C@@H](C)O)C(=O)N[C@@H](Cc2c[nH]cn2)C(=O)N[C@@H](C(c2ccccc2)c2ccccc2)C(=O)N2CCC[C@H]2C(=O)N[C@@H](C)C(=O)N(C)[C@@H](CC(C)C)C(=O)N1)C(=O)N[C@H](CCCCN)C(N)=O [Compd 53] (Isovaleryl-[Hag]TH[Dip]PA[NMeL][Hag][β3hF]K([Ahx-Palmitoyl])[dK]-NH2; staple 1-8) | 7.00 to 8.00 | 6.30 to 7.00 |
| CCCCCCCCCCCCCCCC(=O)NCCCCCC(=O)NCCCC[C@H](NC(=O)C[C@H](Cc1ccccc1)NC(=O)[C@@H]1CCCC=CCCC[C@H](NC(=O)CC(C)C)C(=O)N[C@@H]([C@@H](C)O)C(=O)N[C@@H](Cc2c[nH]cn2)C(=O)N[C@@H](C(c2ccccc2)c2ccccc2)C(=O)N2CCC[C@H]2C(=O)N[C@@H](C)C(=O)N[C@@H]([C@@H](C)CC)C(=O)N1)C(=O)N[C@H](CCCCN)C(N)=O [Compd 28] | 8.00 to 9.00 | 8.00 to 9.00 |
| CCCCCCCCCCCCCCCC(=O)NCCCCCC(=O)NCCCC[C@H](NC(=O)C[C@H](Cc1ccccc1)NC(=O)[C@@H]1CC=CCC[C@H](NC(=O)CC(C)C)C(=O)N[C@@H]([C@@H](C)O)C(=O)N[C@@H](Cc2c[nH]cn2)C(=O)N[C@@H](C(c2ccccc2)c2ccccc2)C(=O)N2CCC[C@H]2C(=O)N[C@@H](C)C(=O)N[C@@H]([C@@H](C)CC)C(=O)N1)C(=O)N[C@@H](CCCNC(=N)N)C(N)=O [Compd 22] | 7.00 to 8.00 | 8.00 to 9.00 |
| CCCCCCCCCCCCCCCC(=O)NCCCCCC(=O)NCCCC[C@H](NC(=O)C[C@H](Cc1ccccc1)NC(=O)[C@@H]1CCC=CCC[C@H](NC(=O)CC(C)C)C(=O)N[C@@H]([C@@H](C)O)C(=O)N[C@@H](Cc2c[nH]cn2)C(=O)N[C@@H](C(c2ccccc2)c2ccccc2)C(=O)N2CCC[C@H]2C(=O)N[C@@H](C)C(=O)N[C@@H](CC(C)(C)C)C(=O)N1)C(=O)N[C@H](CCCCN)C(N)=O [Compd 63] (Isovaleryl-[Hag]TH[Dip]PA[tBuAla][Hag][β3hF]K([Ahx-Palmitoyl])[dK]-NH2; staple 1-8) | 8.00 to 9.00 | 8.00 to 9.00 |
| CCCCCCCCCCCCCCCC(=O)NCCCCCC(=O)NCCCC[C@H](NC(=O)C[C@H](Cc1ccccc1)NC(=O)[C@H]1CCCC=CCC[C@@H](NC(=O)CC(C)C)C(=O)N[C@@H]([C@@H](C)O)C(=O)N[C@@H](Cc2c[nH]cn2)C(=O)N[C@@H](C(c2ccccc2)c2ccccc2)C(=O)N2CCC[C@H]2C(=O)N[C@@H](C)C(=O)N[C@@H]([C@@H](C)CC)C(=O)N1)C(=O)N[C@H](CCCCN)C(N)=O [Compd 71] | 6.30 to 7.00 | 6.30 to 7.00 |
| CCCCCCCCCCCCCCCC(=O)NCCCCCC(=O)NCCCC[C@@H](C(=O)N[C@H](CCCCN)C(N)=O)N(C)C(=O)C[C@H](Cc1ccccc1)NC(=O)[C@@H]1CCC=CCC[C@H](NC(=O)CC(C)C)C(=O)N[C@@H]([C@@H](C)O)C(=O)N[C@@H](Cc2c[nH]cn2)C(=O)N[C@@H](C(c2ccccc2)c2ccccc2)C(=O)N2CCC[C@H]2C(=O)N[C@@H](C)C(=O)N[C@@H]([C@@H](C)CC)C(=O)N1 [Compd 55] | 7.00 to 8.00 | 8.00 to 9.00 |
| CCCCCCCCCCCCCCCC(=O)NCCCCCC(=O)NCCCC[C@H](NC(=O)C[C@H](Cc1ccccc1)NC(=O)[C@@H]1CCC=CCC[C@H](NC(=O)CC(C)C)C(=O)N[C@@H]([C@@H](C)O)C(=O)N[C@@H](Cc2c[nH]cn2)C(=O)N[C@@H](C(c2ccccc2)c2ccccc2)C(=O)N2CCC[C@H]2C(=O)N[C@@H](C)C(=O)N[C@@H]([C@@H](C)CC)C(=O)N1)C(=O)N(C)[C@H](CCCCN)C(N)=O [Compd 56] | 7.00 to 8.00 | 8.00 to 9.00 |
